These results are taken from ChEMBL document CHEMBL1201862, “PubChem BioAssay data set” (2004).

The structures appear in SMILES notation.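 Cells were grown in 96-well plates and exposed to each compound for 48 hours at five concentrations; endpoints were interpolated linearly between bracketing concentrations, or set to the highest concentration if not reached. GI50: concentration for 50% inhibition of growth.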 Active and inactive are the calls of the source. No stated cut-off is given here; in the data, active = GI50 up to about 1.1 µM and inactive = higher. A value given as a limit tells only on which side of the number the result lay.

Among the test systems are K562; BT-549; EKVX; 786-0; HL-60; M14; RPMI-8226; SNB-19; SF-268; A549; MDA-MB-435; SK-OV-3; NCI-H226; U-251; SW-620; HCT-15; MCF7; SK-MEL-2; MDA-MB-231; SF-539.
Assay in all cases: NCI anticancer screen, dose series, 48 h

Regarding `O=C1Nc2ccccc2C1(O)Cc1ccccn1` (stereo not drawn), the GI50 in the test on K562, in the test on BT-549, in the test with EKVX, in the test with 786-0, in the test on HL-60 and in the test with M14 was > 100 µM (inactive) throughout. In addition, the GI50 with RPMI-8226, in the test with SNB-19, with SF-268, with A549, in the test on MDA-MB-435 and with SK-OV-3 was > 100 µM (inactive) each time. Also, the GI50 was > 100 µM (inactive) in the test on NCI-H226; > 100 µM (inactive) in the test on U-251; > 100 µM (inactive) in the test with SW-620; more than 100 µM with HCT-15; > 100 µM (inactive) with MCF7; > 100 µM (inactive) in the test on SK-MEL-2. In addition, the GI50 in the test with MDA-MB-231 was > 100 µM (inactive).
Take `Cc1cccc(NC(=S)Nc2cccc(Cl)c2)n1`: the GI50 was 30.1 µM (inactive) with SF-539; > 100 µM (inactive) with K562; > 100 µM (inactive) in the test with BT-549; > 100 µM (inactive) in the test with EKVX; > 70.6 µM (inactive) in the test with 786-0; > 100 µM (inactive) in the test with HL-60. In addition, the GI50 in the test on M14 is > 100 µM (inactive); in the test on RPMI-8226 it was > 100 µM (inactive); with SNB-19 it was > 60.4 µM (inactive); in the test with SF-268, > 67.8 µM (inactive); in the test on A549, > 100 µM (inactive); in the test on MDA-MB-435 it was > 100 µM (inactive). Besides, the GI50 with SK-OV-3 was 41.9 µM (inactive); with NCI-H226, > 56.9 µM (inactive); in the test with U-251 it was 47.1 µM (inactive); in the test on SW-620, > 100 µM (inactive); in the test on HCT-15, more than 100 µM; in the test with MCF7 it was > 100 µM (inactive). The results for the GI50 in the test on SK-MEL-2 and with MDA-MB-231 were > 72.8 µM (inactive) and > 100 µM (inactive), respectively.
Regarding `O=C(NCCNCCO)N/N=C/c1ccc(Cl)cc1`, the GI50 with SF-539, in the test on K562, with BT-549, in the test with 786-0, in the test on HL-60 and in the test with M14 was > 100 µM (inactive) throughout. For the same molecule, the GI50 in the test on SNB-19, with SF-268, in the test with A549, in the test on MDA-MB-435, with SK-OV-3 and in the test on NCI-H226 was > 100 µM (inactive) in each case. Besides, the GI50 in the test with U-251 is > 100 µM (inactive); in the test with SW-620, > 100 µM (inactive); in the test with HCT-15 it was more than 100 µM; in the test on MCF7 it was > 100 µM (inactive); in the test with SK-MEL-2, > 100 µM (inactive); with MDA-MB-231, > 100 µM (inactive).
For the molecule `CSC(=O)c1sc(SC)[n+](-c2ccccc2)c1O`, the GI50 in the test with SF-539 is 15.1 µM (inactive); in the test with K562 it was 16.6 µM (inactive); in the test on BT-549, 15.1 µM (inactive); with EKVX, > 10 µM (inactive); in the test with 786-0 it was 17.9 µM (inactive); in the test with HL-60, > 10 µM (inactive). The GI50 in the test on M14 was 14.3 µM (inactive); with RPMI-8226, 21.5 µM (inactive); in the test on SNB-19 it was 19.6 µM (inactive); in the test on SF-268, 16.4 µM (inactive); in the test with A549 it was > 100 µM (inactive); in the test on MDA-MB-435 it was 18.7 µM (inactive). The GI50 in the test on SK-OV-3 is 34.4 µM (inactive); in the test with NCI-H226, 22.5 µM (inactive); in the test on U-251, 16.5 µM (inactive); with SW-620, 15.5 µM (inactive); with HCT-15, 21 µM; with MCF7 it was 25.4 µM (inactive). For the same molecule, the GI50 in the test on SK-MEL-2 is 22 µM (inactive); in the test with MDA-MB-231, 11.3 µM (inactive).
With `Cn1c(CCC2(C)Cc3ccccc3C(=O)O2)cc2ccccc2c1=O` (stereo not drawn), the GI50 was 43.1 µM (inactive) in the test with SF-539; 2.96 µM (inactive) in the test with K562; 21.8 µM (inactive) in the test with BT-549; 96.6 µM (inactive) in the test with 786-0; 27.2 µM (inactive) with HL-60; 16.4 µM (inactive) in the test on M14. Besides, the GI50 with RPMI-8226 is 17.3 µM (inactive); in the test on SNB-19, 55.6 µM (inactive); in the test on A549 it was 31.2 µM (inactive); in the test with MDA-MB-435 it was 19.4 µM (inactive); in the test on SK-OV-3, 30.5 µM (inactive); with NCI-H226 it was 22 µM (inactive). Besides, the GI50 with U-251 is 45.5 µM (inactive); in the test on HCT-15, 33.7 µM; with MCF7, 24.2 µM (inactive); in the test with SK-MEL-2, 24.2 µM (inactive); in the test with MDA-MB-231 it was 45.1 µM (inactive).
For the molecule `CN(C(=O)Cc1ccc(Cl)c(Cl)c1)[C@@H]1CCCC[C@H]1[N+]1(C)CC=CC1`, the GI50 with K562, with BT-549, in the test with EKVX, in the test on 786-0, with HL-60 and with M14 was > 100 µM (inactive) in each case. Besides, the GI50 in the test with RPMI-8226, in the test on SNB-19, in the test with SF-268, in the test with A549, in the test with MDA-MB-435 and in the test with SK-OV-3 was > 100 µM (inactive) throughout. In addition, the GI50 in the test on NCI-H226 was > 100 µM (inactive); in the test on U-251 it was > 100 µM (inactive); in the test with SW-620 it was > 100 µM (inactive); in the test with HCT-15, more than 100 µM; in the test with MCF7 it was > 100 µM (inactive); in the test on SK-MEL-2, > 100 µM (inactive). In the test on MDA-MB-231, the GI50 was > 100 µM (inactive).
Turning to `CSCCCNC(=O)c1csc([C@@H](CSC)NC(=O)CCNC(=O)[C@@H](NC(=O)OCC(Br)(Br)Br)C(C)O)n1` (stereo partly drawn), the GI50 in the test on SF-539 is > 100 µM (inactive); with K562 it was > 100 µM (inactive); with BT-549, > 100 µM (inactive); in the test on EKVX it was 75.5 µM (inactive); with 786-0, > 100 µM (inactive); with HL-60 it was > 100 µM (inactive). The GI50 in the test with M14, with SNB-19, in the test with SF-268, with A549, in the test on MDA-MB-435 and with SK-OV-3 was > 100 µM (inactive) in each case. In addition, the GI50 was > 100 µM (inactive) with NCI-H226; > 100 µM (inactive) in the test with U-251; > 100 µM (inactive) in the test on SW-620; more than 100 µM in the test on HCT-15; 94.2 µM (inactive) in the test on MCF7; > 100 µM (inactive) in the test on SK-MEL-2. Moreover, the GI50 in the test with MDA-MB-231 is > 100 µM (inactive).
In the case of `O=P(Oc1ccccc1)(Oc1ccccc1)Oc1c[nH]c2ccccc12`, the GI50 in the test on SF-539 was 11.4 µM (inactive); in the test with K562, 10.7 µM (inactive); in the test on BT-549 it was 17 µM (inactive); in the test with EKVX, 0.296 µM (active); in the test with 786-0, 15.5 µM (inactive); in the test on HL-60 it was 21.7 µM (inactive). The GI50 in the test with M14 is 11.3 µM (inactive); with RPMI-8226, 0.103 µM (active); in the test with SNB-19, 13.1 µM (inactive); in the test with SF-268 it was 11.1 µM (inactive); with A549, 11.1 µM (inactive); with MDA-MB-435, 12.2 µM (inactive). In addition, the GI50 was 3.44 µM (inactive) with SK-OV-3; 9.68 µM (inactive) with NCI-H226; 12.3 µM (inactive) in the test on U-251; 13.4 µM (inactive) with SW-620; 12.8 µM with HCT-15; 11 µM (inactive) in the test on MCF7. For the same molecule, the figures for the GI50 in the test with SK-MEL-2 and with MDA-MB-231 were 5.47 µM (inactive) and 11.4 µM (inactive), respectively.
As to `C=CC(CCc1ccc(C(=O)OCC)cc1)c1c(N)nc(N)[nH]c1=O` (stereo not drawn), the GI50 with SF-539 is > 100 µM (inactive); in the test on K562, > 100 µM (inactive); in the test on BT-549, > 100 µM (inactive); in the test with 786-0, > 100 µM (inactive); in the test on HL-60, 28.5 µM (inactive); with M14 it was > 100 µM (inactive). Moreover, the GI50 with RPMI-8226 is 44.8 µM (inactive); in the test with SNB-19, > 100 µM (inactive); with SF-268, > 100 µM (inactive); in the test on A549 it was > 100 µM (inactive); in the test on MDA-MB-435, > 100 µM (inactive); with SK-OV-3 it was > 100 µM (inactive). In addition, the GI50 with NCI-H226 is 84.9 µM (inactive); in the test with U-251, > 100 µM (inactive); in the test on SW-620 it was > 100 µM (inactive); in the test with HCT-15 it was more than 100 µM; in the test with MCF7, 87.7 µM (inactive); in the test with SK-MEL-2, > 100 µM (inactive). Further, in the test with MDA-MB-231, the GI50 is > 100 µM (inactive).
`c1ccc(-c2nnn(CCN3CCCCC3)n2)cc1`: the GI50 is > 100 µM (inactive) in the test on K562; > 100 µM (inactive) with BT-549; 96.6 µM (inactive) in the test with EKVX; > 100 µM (inactive) with 786-0; > 100 µM (inactive) in the test with HL-60; > 100 µM (inactive) with M14. For the same molecule, the GI50 in the test on RPMI-8226, in the test with SNB-19, with SF-268, in the test with A549, in the test on MDA-MB-435 and with SK-OV-3 was > 100 µM (inactive) throughout. Also, the GI50 in the test with NCI-H226 is > 100 µM (inactive); in the test on U-251 it was > 100 µM (inactive); in the test with SW-620, > 100 µM (inactive); in the test with HCT-15, more than 100 µM; with MCF7 it was > 100 µM (inactive); in the test on SK-MEL-2, > 100 µM (inactive). The GI50 in the test with MDA-MB-231 was > 100 µM (inactive).
For `CN1CC[C@]2(c3cccc(O)c3)CC(=O)/C(=C/c3ccc(Cl)c(Cl)c3)[C@@H]1C2`, the GI50 with SF-539 was 2.5 µM (inactive); in the test with K562 it was 0.296 µM (active); in the test on BT-549 it was 1.75 µM (inactive); with EKVX, 1.55 µM (inactive); with 786-0 it was 1.05 µM (active); in the test on HL-60, 0.199 µM (active). Also, the GI50 in the test on M14 is 1.15 µM (inactive); with RPMI-8226, 0.262 µM (active); with SNB-19, 1.75 µM (inactive); with SF-268 it was 1.71 µM (inactive); with A549, 1.6 µM (inactive); in the test with MDA-MB-435, 0.337 µM (active). Moreover, the GI50 with NCI-H226 is 2.34 µM (inactive); in the test with U-251 it was 0.975 µM (active); in the test on SW-620, 1.14 µM (inactive); in the test on HCT-15, 1.16 µM; in the test with MCF7, 1.29 µM (inactive); in the test with MDA-MB-231, 1.15 µM (inactive).
